Data taken from US10905738B2, “Synthetic peptides, prodrugs, pharmaceutical compositions and uses” (Biozeus Desenvolvimento De Produtos Biofarmacêuticos, priority 2018, dated 2021).

System: smooth muscle of tracheal rings
Assay: spasmodic contraction of tracheal rings ex vivo (histamine-induced)
Set-up: species or system Dunkin-Hartley guinea pigs
Conditions: for relaxing effect on airway (tracheal ring) smooth muscle, in words: histamine-induced contraction ex vivo; for Effectiveness (Emax) (%): relaxation of tracheal rings contracted by histamine (50 μM); for Effectiveness (Emax) (%) / Potency (pEC50) Molar: mean±SEM; for Potency (pEC50) Molar: tracheal rings contracted by histamine (50 μM), peptides 0.01 to 10 μM
Description: The magnitude of the relaxing effect of the peptides was evaluated by means of a model of spasmodic contraction of tracheal rings ex vivo, largely employed to test new bronchodilating agents (see CULLUM, V. A., FARMER, J. B., JACK, D., LEVY, G. P. Salbutamol: a new, selective β-adrenoceptive receptor stimulant. British journal of pharmacology, 35(1): 141-151. 1969; KAO, C. H., CHU, Y. H., WANG, H. W. Effects of lidocaine on rat's isolated tracheal smooth muscle. European Archives of Oto-Rhino-Laryngology, 267(5): 817-820. 2010; SORIANO-URSÚA, M. A., VALENCIA-HERNÁNDEZ, I., ARELLANO-MENDOZA, M. G., CORREA-BASURTO, J., TRUJILLO-FERRARA, J. G. Synthesis, pharmacological and in silico evaluation of 1-(4-dihydroxy-3, 5-dioxa-4-borabycyclo [4.4.0] deca-7,9,11-trien-9-yl)-2-(tert-butylamine) ethanol, a compound designed to act as a β2 adrenoceptor agonist. European journal of medicinal chemistry, 44(7): 2840-2846. 2009).
For each test, Dunkin-Hartley guinea pigs (400-500 g) were euthanized in a CO2 atmosphere; subsequently, the trachea was exposed, removed and sectioned in segments of 1 to 3 cartilaginous tracheal rings. Each segment was transferred to an individual organ bath system containing Krebs nutritive solution (NaCl 118 mM; KCl […]; CaCl2) 2.5 mM; MgSO4 1.2 mM; KH2PO4 1.2 mM; NaHCO324 mM; glucose 11 mM) at 37° C., under constant aeration with a carbogenic mixture (95% of O2 and 5% of CO2). In each system, a stem fixed to the base of the container and another connected to an isometric transducer (GRASS FT-03) made up the support of the fragments. A data digitizing system connected to the isometric transducer allowed the recording of tension variations produced by the contraction of the tracheal rings (PowerLab™ 16/30, LabChart, version 8.1, AD Instruments, Australia). The basal tension was adjusted to 1 g, and subsequently, the contractility of the fragments was evaluated by a stimulus with carbachol (2.5 μM). After 1 h at rest, the basal tension was recovered and the tissues were subjected to contraction induced by histamine (50 μM) followed by exposure to increasing concentrations of the treatments (0.01 to 10 μM; n=8) or the comparator PnTx(19).
Table 1 lists the mean±SEM of the potency values, shown as the negative logarithm of the concentration that reduced the voltage to 50% of the maximum Histamine-induced contraction (pEC50), and efficacy (Emax), calculated from at least 8 independent tests using the sigmoid nonlinear regression equation of the software Graph Prism 5.0 (GraphPad Software, La Jolla, Ca, USA).

| Sequence | relaxing effect on airway (tracheal ring) smooth muscle, in words | Effectiveness (Emax) (%) | Potency (pEC50) Molar |
| --- | --- | --- | --- |
| RQAFWIAWYKLANSK [SEQ ID NO: 3, Ac-Arg-Gln-Ala-Phe-Trp-Ile-Ala-Trp-Tyr-Lys-Leu-Ala-Asn-Ser-Lys-NH2] | effective | 36.7 ± 1.9% | 6.8 ± 0.2 Molar |
| RAYFWIAWYKLANSK [SEQ ID NO: 1, Ac-Arg-Ala-Tyr-Phe-Trp-Ile-Ala-Trp-Tyr-Lys-Leu-Ala-Asn-Ser-Lys-NH2] | effective | 45.7 ± 4.3% | 7.1 ± 0.4 Molar |
| IAWYKGGGGGIAWYKGGGGGIAWYK [SEQ ID NO: 30] |  | Inactive | Inactive |
| AQYFWIAWYKLANSK [SEQ ID NO: 4, Ac-Ala-Gln-Tyr-Phe-Trp-Ile-Ala-Trp-Tyr-Lys-Leu-Ala-Asn-Ser-Lys-NH2] | effective | 38.8 ± 3.5% | 6.8 ± 0.3 Molar |
| IAWYKRGGGGGRKYWAI [SEQ ID NO: 29, Ac-Ile-Ala-Trp-Tyr-Lys-Arg-Gly-Gly-Gly-Gly-Gly-Arg-Lys-Tyr-Trp-Ala-Ile-NH2] |  | Inactive | Inactive |
| IAWYKGGGGGIAWYK [SEQ ID NO: 28, Ac-Ile-Ala-Trp-Tyr-Lys-Gly-Gly-Gly-Gly-Gly-Ile-Ala-Trp-Tyr-Lys-NH2] |  | Inactive | Inactive |
| RQYFWIAWYKIASNK [SEQ ID NO: 6, Ac-Arg-Gln-Tyr-Phe-Trp-Ile-Ala-Trp-Tyr-Lys-Ile-Ala-Ser-Asn-Lys-NH2] |  | 25.3 ± 1.7% | 7.0 ± 0.3 Molar |
| RQYFWIAWYKLANSA [SEQ ID NO: 2, Ac-Arg-Gln-Tyr-Phe-Trp-Ile-Ala-Trp-Tyr-Lys-Leu-Ala-Asn-Ser-Ala-NH2] | effective | 40.4 ± 2.6% | 6.9 ± 0.2 Molar |
